Results as given in patent US8987314B2, “Amide, urea or sulfone amide linked benzothiazole inhibitors of endothelial lipase” (Bristol-Myers Squibb Company, priority 2012, dated 2015).
Like-named read-outs stand apart in the source and are kept apart here.

Experiments:
[1] = molecular target: Endothelial lipase (EL) (Homo sapiens (Human), UniProt Q9Y5X9); assay: EL assay: endothelial lipase activity with fluorescent substrate A10070 in DMPG vesicles; format: biochemical
How it was run: (§1)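 Compounds were preincubated with enzyme for 30 min at 37° C before FRET-substrate vesicles (A10070 in DMPG, 0.11 mole fraction) were added. Reaction rates were obtained from the 300–900 sec slope of fluorescence at 490/530 nm.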

[2] = molecular target: hepatic lipase (HL) (Homo sapiens (Human), UniProt P11150); assay: HL assay: hepatic lipase activity with fluorescent substrate A10070 in DMPG vesicles; format: biochemical
Sequence of hepatic lipase (HL) (P11150 23-499, species assumed): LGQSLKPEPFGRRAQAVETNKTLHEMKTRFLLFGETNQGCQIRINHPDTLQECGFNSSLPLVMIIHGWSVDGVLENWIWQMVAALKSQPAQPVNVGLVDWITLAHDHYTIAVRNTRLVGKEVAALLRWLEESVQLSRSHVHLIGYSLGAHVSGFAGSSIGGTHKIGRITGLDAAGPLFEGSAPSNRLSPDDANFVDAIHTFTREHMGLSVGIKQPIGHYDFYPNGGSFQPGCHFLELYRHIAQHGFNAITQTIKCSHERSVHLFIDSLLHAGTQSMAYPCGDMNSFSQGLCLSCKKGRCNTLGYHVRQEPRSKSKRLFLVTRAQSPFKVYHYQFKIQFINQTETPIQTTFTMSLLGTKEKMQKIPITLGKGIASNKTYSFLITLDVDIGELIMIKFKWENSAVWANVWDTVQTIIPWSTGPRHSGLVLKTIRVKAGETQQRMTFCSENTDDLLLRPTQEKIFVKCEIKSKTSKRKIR
How it was run: as §1

[3] = EL from conditioned media of HT-1080 cells, 30 min incubation with compound at 37° C., A10070/DMPG vesicles
[4] = HL partially purified from conditioned media of COS cells, 30 min incubation with compound at 37° C., A10070/DMPG vesicles

Sequence of Endothelial lipase (EL) (Q9Y5X9 21-500): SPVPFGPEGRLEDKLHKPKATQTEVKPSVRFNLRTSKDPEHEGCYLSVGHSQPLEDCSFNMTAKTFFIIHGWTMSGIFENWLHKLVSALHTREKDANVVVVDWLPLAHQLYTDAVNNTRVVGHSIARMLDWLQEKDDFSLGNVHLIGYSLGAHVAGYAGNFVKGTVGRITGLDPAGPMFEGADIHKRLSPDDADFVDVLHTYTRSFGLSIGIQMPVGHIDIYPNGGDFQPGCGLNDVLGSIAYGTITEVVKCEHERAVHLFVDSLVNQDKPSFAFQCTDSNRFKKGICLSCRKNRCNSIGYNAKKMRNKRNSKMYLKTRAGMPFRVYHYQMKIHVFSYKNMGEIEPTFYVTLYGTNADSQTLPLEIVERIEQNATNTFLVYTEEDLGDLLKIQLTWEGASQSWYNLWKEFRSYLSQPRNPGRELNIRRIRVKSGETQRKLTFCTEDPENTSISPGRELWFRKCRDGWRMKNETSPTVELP

| Compound | IC50 [1] [nM] | IC50 [2] [nM] | IC50 [1, 3] [nM] | IC50 [2, 4] [nM] |
| --- | --- | --- | --- | --- |
| Cc1cc(-c2ccc3nc(C(C(=O)NCCS(N)(=O)=O)S(C)(=O)=O)sc3c2)cnc1F (stereo not drawn) [Example B33, 2-(6-(6-fluoro-5-methyl-3-pyridinyl)-1,3-benzothiazol-2-yl)-2-(methylsulfonyl)-N-(2-sulfamoylethyl)acetamide] | 14 | 22 |  |  |
| CC(C)(C)OC(=O)n1ccc(-c2ccc3nc(C(C(=O)NCCS(N)(=O)=O)S(C)(=O)=O)sc3c2)c1 (stereo not drawn) [Example B220, tert-butyl 3-(2-{methanesulfonyl[(2-sulfa-moylethyl)carbamoyl]meth-yl}-1,3-benzothiazol-6-yl)-1H-pyrrole-1-carboxylatc] | 51.4 | 2.8 |  |  |
| COCc1ccc(-c2ccc3nc(C(C(=O)NCCS(N)(=O)=O)S(=O)(=O)CCC(F)(F)F)sc3c2)cc1 (stereo not drawn) [Example B239, 2-{6-[4-(methoxymeth-yl)phenyl]-1,3-benzothiazol-2-yl}-N-(2-sulfamoyl-ethyl)-2-(3,3,3-trifluoro-propanesulfonyl)acetamide] | 9.4 | 7.3 |  |  |
| CS(=O)(=O)C(C(=O)NCCS(N)(=O)=O)c1nc2ccc(-c3ccnc(O)c3)cc2s1 (stereo not drawn) [Example B189, 2-(methylsulfonyl)-2-(6-(2-oxo-1,2-dihydro-4-pyridinyl)-1,3-benzothiazol-2-yl)-N-(2-sulfamoylethyl)acetamide] | < 10 | 13 |  |  |
| COCC(C)(C)NC(=O)c1ccc(-c2ccc3nc(C(C(=O)NCCS(N)(=O)=O)S(=O)(=O)CC4CC4)sc3c2)cc1 (stereo not drawn) [Example B248, 4-(2-{cyclopropylmethane-sulfonyl[(2-sulfamoyl-ethyl)carbamoyl]methyl}-1,3-benzothiazol-6-yl)-N-(1-methoxy-2-methyl-propan-2-yl)benzamide] | 7.5 | 17.6 |  |  |
| CS(=O)(=O)C(C(=O)NCCS(N)(=O)=O)c1nc2cc(-c3ccnc(O)c3)ccc2s1 (stereo not drawn) [Example B194, 2-(methylsulfonyl)-2-(5-(2-oxo-1,2-dihydro-4-pyridinyl)-1,3-benzothiazol-2-yl)-N-(2-sulfamoylethyl)acetamide] | 2 | 95 |  |  |
| CS(=O)(=O)C(C(=O)NCCS(N)(=O)=O)c1nc2ccc(-c3cncs3)cc2s1 (stereo not drawn) [Example B222, 2-methanesulfonyl-N-(2-sulfamoylethyl)-2-[6-(1,3-thiazol-5-yl)-1,3-benzothiazol-2-yl]a-cetamide] | 12.3 | 31.6 |  |  |
| COCCNC(=O)c1ccc(-c2ccc3nc(C(C(=O)NCc4nnc(C)o4)S(=O)(=O)CCOC)sc3c2)cc1 (stereo not drawn) [Example B264, 4-{2-[(2-methoxyethane-sulfonyl)({[(5-methyl-1,3,4-oxadiazol-2-yl)meth-yl]carbamoyl})meth-yl]-1,3-benzothiazol-6-yl}-N-(2-methoxyethyl)ben-zamide] | 93 | 184 |  |  |
| CO[C@H]1CCN(C(=O)c2ccc(-c3ccc4nc(C(C(=O)NCCS(N)(=O)=O)S(=O)(=O)Cc5ccc(OC(F)(F)F)cc5)sc4c3)cc2)C1 (stereo partly drawn) [Example B356, 2-(6-{4-[(3S)-3-methoxy-pyrrolidine-1-carbonyl]phen-yl}-1,3-benzothiazol-2-yl)-N-(2-sulfamoyl-ethyl)-2-{[4-(trifluoro-methoxy)phenyl]methane-sulfonyl}acetamide] | 2.7 | 26.7 |  |  |
| CC(C)CS(=O)(=O)C(C(=O)NCCS(N)(=O)=O)c1nc2ccc(-c3cnn(CCN4CCOCC4)c3)cc2s1 (stereo not drawn) [Example B123, 2-(isobutylsulfonyl)-2-(6-{1-[2-(4-morpholinyl)eth-yl]-1H-pyrazol-4-yl}-1,3-benzothiazol-2-yl)-N-(2-sulfamoylethyl)a-cetamide] | 18 | 400 |  |  |
| COCCS(=O)(=O)C(C(=O)NCCS(N)(=O)=O)c1nc2ccc(-c3ccc(NC(=O)OC)cc3)cc2s1 (stereo not drawn) [Example B71, methyl (4-(2-(1-((2-methoxyethyl)sulfonyl)-2-oxo-2-((2-sulfamoylethyl)a-mino)ethyl)-1,3-benzothiazol-6-yl)phenyl)car-bamate] | < 10 | < 10 |  |  |
| CC(=O)Nc1ccc(-c2ccc3nc(C(C(=O)NCCS(N)(=O)=O)S(=O)(=O)CCC(F)(F)F)sc3c2)cc1 (stereo not drawn) [Example B55, 2-(6-(4-acetamidophenyl)-1,3-benzothiazol-2-yl)-N-(2-sulfamoylethyl)-2-((3,3,3-trifluoropropyl)sul-fonyl)acetamide] | < 10 | 55 |  |  |
| CS(=O)(=O)C(C(=O)NCCS(N)(=O)=O)c1nc2ccc(-c3ccc(C(=O)N4CCOCC4)c(Cl)c3)cc2s1 (stereo not drawn) [Example B32, 2-(6-(3-chloro-4-(4-morpholinylcarbonyl)phenyl)-1,3-benzothiazol-2-yl)-2-(methylsulfonyl)-N-(2-sulfamoylethyl)acetamide] | < 10 | 923 |  |  |
| NCCS(=O)(=O)C(C(=O)NCCS(N)(=O)=O)c1nc2ccc(-c3ccccc3)cc2s1 (stereo not drawn) [Example B161, 2-((2-aminoethyl)sulfonyl)-2-(6-phenyl-1,3-benzothiazol-2-yl)-N-(2-sulfamoylethyl)acetamide] | < 10 | 22 |  |  |
| Cc1cc2nc(C(C(=O)NCCS(N)(=O)=O)S(C)(=O)=O)sc2cc1-c1cnn(C)c1 (stereo not drawn) [Example B203, 2-(5-methyl-6-(1-methyl-1H-pyrazol-4-yl)-1,3-benzothiazol-2-yl)-2-(methylsulfonyl)-N-(2-sulfamoylethyl)acetamide] |  |  | 10 | 141 |
| CS(=O)(=O)C(C(=O)NCCS(N)(=O)=O)c1nc2ccc(-c3ccc(C#N)cc3)cc2s1 (stereo not drawn) [Example B50, 2-(6-(4-cyanophenyl)-1,3-benzothiazol-2-yl)-2-(methylsulfonyl)-N-(2-Sulfamoylethyl)acetamide] | < 10 | 14 |  |  |
| CC(C)(O)Cn1cc(-c2ccc3nc(C(C(=O)NCCS(N)(=O)=O)S(C)(=O)=O)sc3c2)ccc1=O (stereo not drawn) [Example B186, 2-(6-(1-(2-hydroxy-2-methylpropyl)-6-oxo-1,6-dihydro-3-pyridinyl)-1,3-benzothiazol-2-yl)-2-(methylsulfonyl)-N-(2-sulfamoylethyl)acetamide] | 1.1 | 10000 |  |  |
| COCCS(=O)(=O)C(C(=O)NCCS(N)(=O)=O)c1nc2ccc(-c3ccc(NC(=O)OC(C)(C)C)cc3)cc2s1 (stereo not drawn) [Example B70, tert-butyl (4-(2-(1-((2-methoxyethyl)sulfonyl)-2-oxo-2-((2-sulfamoylethyl)a-mino)ethyl)-1,3-benzothiazol-6-yl)phenyl)car-bamate] | < 10 | < 10 |  |  |
| CS(=O)(=O)C(C(=O)NCCS(N)(=O)=O)c1nc2cc(-c3ccc(F)nc3F)ccc2s1 (stereo not drawn) [Example B385, 2-[5-(2,6-difluoropyridin-3-yl)-1,3-benzothiazol-2-yl]-2-methanesulfonyl-N-(2-sulfamoylethyl)a-cetamide] | 3.5 | 20.5 |  |  |
| COCCn1cc(-c2ccc3nc(C(C(=O)NCCS(N)(=O)=O)S(C)(=O)=O)sc3c2)cn1 (stereo not drawn) [Example B162, 2-(6-(1-(2-Methoxyethyl)-1H-pyrazol-4-yl)-1,3-benzothiazol-2-yl)-2-(methylsulfonyl)-N-(2-sulfamoylethyl)acetamide] |  |  | < 10 | 995 |
| COc1cc(-c2ccc3nc(C(C(=O)NCCS(N)(=O)=O)S(C)(=O)=O)sc3c2)c(F)cn1 (stereo not drawn) [Example B142, 2-(6-(5-fluoro-2-methoxy-4-pyridinyl)-1,3-benzothiazol-2-yl)-2-(methylsulfonyl)-N-(2-sulfamoylethyl)acetamide] | > 10 | 77 |  |  |
